Measured values as given in patent US20160235778A1, “COMPOSITIONS CONTAINING PUFA, URIDINE AND CHOLINE AND METHODS OF USE THEREOF” (MASSACHUSETTS INSTITUTE OF TECHNOLOGY, priority 2014, published 2016).

Experiments:
Rat hippocampal cells = test: 14C-choline incorporation into PC in cultured hippocampal neurons; format: cell-based; settings: DHA+choline, 14C-choline 2 h, FIG. 10
Protocol: Rat hippocampal cells were cultured for 3 weeks in Neutrobasal plus B27 medium, to reach full maturation. On the day of the experiment, cells were incubated with DMEM+choline, with or without added DHA. ^14C-choline was added, cells were incubated for an additional 2 h, and newly-formed ^14C-labeled PC was extracted and measured as described in Example 1.

brain CDP-choline = test: Brain CDP-choline and CDP-ethanolamine levels (HPLC); format: in vivo; settings: gerbil
Protocol: FIG. 5A-B. Effects of DHA on brain CDP-choline levels (FIG. 5A) and CDP-ethanolamine levels (FIG. 5B). Groups of 8 gerbils received either a control or a UMP-containing diet, and, by gavage, DHA (in a vehicle of 5% gum Arabic solution) or 5% gum Arabic solution alone for 28 days. On the 29th day brains were harvested and assayed for CDP-choline. Data are presented as means±SEM. Statistical analysis was performed using one- or two-way ANOVA followed by Tukey test. a: P<0.05 when compared with the values for control diet plus vehicle group; b: P<0.05 when compared with values for UMP diet plus vehicle group.
Aliquots (2 ml) of the upper (aqueous) phase were dried under a vacuum, reconstituted, and injected into an HPLC. The dried samples were reconstituted in 100-200 μl water and were analyzed by HPLC on an anion exchange column (Alltech Hypersil APS-2, […], 250×4.6 mm). CDP-choline was eluted with a linear gradient of buffers A (H3PO4, 1.75 mM, pH 2.9) and B (NaH2PO2, 500 mM, pH 4.5) from 0 to 100% B over period of 30 min. With this system, CDP-choline was resolved from closely co-eluting substances such as UMP in an isocratic system over a period of 40 min. The retention time for CDP-choline was 9.5 min. The column was washed with buffer B at the end of each experiment and every several days to remove retained nucleotides. Individual nucleotide peaks were detected by UV absorption at 280 nm and were identified by comparison with the positions of authentic standards, as well as by the addition of nucleotide standards to samples.

[1] = system: hippocampal dendritic spines; test: Hippocampal dendritic spine numbers in pups of treated pregnant and nursing mothers; format: in vivo; settings: rat pups, mothers treated 10 days before parturition and 20 days while nursing
Description: In another study, pregnant rats were allowed to consume ad libitum, for 10 days before parturition and 20 days while nursing, either a choline-containing control diet or this diet supplemented with uridine as UMP; half of each group also received DHA or its diluent daily, by gavage. Pups were then sacrificed and brain slices were examined to determine numbers of hippocampal dendritic spines.

brain phospholipids = test: Brain phospholipid levels in gerbils given UMP diet and/or PUFA by gavage; format: in vivo, gerbil; set-up: PC / PE / PS / PI: unit not given here
Protocol: Control standard diet (Table 4) consisted of Teklad Global 16% protein rodent diet (Harlan Teklad, Madison, Wis.), which contained 0.1% choline chloride (CC), corresponding to a daily dose of 50 mg/kg/day. UMP was provided as 0.5% UMP·2Na^+ weight/weight, added to the control diet, also prepared by Harlan Teklad, corresponding to 240 mg/kg/day UMP. DHA was administered as 300 mg/kg/day in 200 microliter (mcL)/day 5% Arabic Gum solution, while groups not receiving DHA were administered vehicle (5% Arabic Gum) alone. DHA was provided by Nu-Chek Prep (Elysian, MN) and UMP by Numico (Wagenigen, NL).
Gerbils were anesthetized with ketamine and xylazine (80 and 10 mg/kg bwt, i.p.) and sacrificed by immersing the head into liquid nitrogen for 2 min, followed by decapitation. Brains were immediately and quickly (30 seconds) removed using a bone rongeur and stored at −80° C.
Frozen brain hemispheres were weighed and homogenized in 100 volumes of ice-cold deionized water using a tissue degrader (Polytron PT 10-35, Kinematica AG, Switzerland), then analyzed as described in Example 1.
Protein in whole brain homogenate sample was measured for using bicinchoninic acid reagent (Perkin Elmer, Norwalk, Conn., USA). DNA was measured by measuring 460 nm emission of samples on a fluorometer in the presence of bisbenzimidizole, a fluorescent dye known as Hoechst H 33258 (American Hoechst Corporation), which has an excitation maximum at 356 nm and an emission maximum of 458 when bound to DNA.
Male gerbils weighing 80-100 g were divided into 4 groups of 8 gerbils and administered the supplements depicted in Table 1:
Adult gerbils were administered control standard diet (Table 4) with our without 0.5% UMP and/or 300 mg/kg/day DHA, EPA, or AA. Groups not receiving DHA were administered vehicle (5% Arabic Gum) alone.

[2] = gerbil brain, 3 weeks, 0.5% UMP and/or 300 mg/kg/day PUFA, Table 6
[3] = gerbil brain, 4 weeks, normalized to DNA levels, mean +/- SEM
[4] = gerbil brain, 4 weeks, normalized to protein levels, mean +/- SEM
[5] = gerbil, Table 5A study, vs control

For CCC=CCC=CCC=CCC=CCC=CCC=CCCC(=O)O [DHA, 4,7,10,13,16,19-docosahexaenoic acid], the “increase in synthesis of phospholipids relative to choline alone (control)” value (Rat hippocampal cells) was “more than 2 fold”, the “reduction of brain CDP-choline levels in UMP-treated gerbils” value (brain CDP-choline; 28 days, compared with UMP-containing diet and DHA's vehicle) was 21% and the “reduction of brain CDP-choline levels” value (brain CDP-choline; 28 days, compared with control diet and DHA's vehicle) was 26%. For the same molecule, the “brain CDP-choline levels, in words” value (brain CDP-choline; FIG. 5A) was “decreased”, the “brain CDP-ethanolamine levels, in words” value (brain CDP-choline; FIG. 5B) was “decreased” and the “Increase over control (%)” value [1] was 32%. It also gave a Number of spines [1] of 70, a PC (brain phospholipids; [2]) of 133 ± 6 and a PE (brain phospholipids; [2]) of 77 ± 2. It also gave a PI (brain phospholipids; [2]) of 18 ± 2, a PS (brain phospholipids; [2]) of 34 ± 3 and an SM (brain phospholipids; [2]) of 24 ± 2. The “Total PL” value (brain phospholipids; [2]) was 344 ± 16, the PC (brain phospholipids; [3]) was 366 ± 13 and the PE (brain phospholipids; [3]) was 196 ± 18. The PI (brain phospholipids; [3]) was 84 ± 13, the PS (brain phospholipids; [3]) was 98 ± 7 and the SM (brain phospholipids; [3]) was 126 ± 8. The “Total PL” value (brain phospholipids; [3]) was 909 ± 77, the PC (brain phospholipids; [4]) was 185 ± 12 and the PE (brain phospholipids; [4]) was 78 ± 5. The PI (brain phospholipids; [4]) was 32 ± 2, the PS (brain phospholipids; [4]) was 39 ± 3 and the SM (brain phospholipids; [4]) was 56 ± 3. For the same molecule, the “Total PL” value (brain phospholipids; [4]) was 392 ± 20, the “increase in levels of total phospholipids” value (brain phospholipids; gerbil brain, 4 weeks, vs control group) was 12% and the PtdCho (brain phospholipids; gerbil brain, Table 5 part A) was 185 ± 12 nmol/mg prt. The PtdEtn (brain phospholipids; gerbil brain, Table 5 part A) was 78 ± 5 nmol/mg prt, the PtdIns (brain phospholipids; gerbil brain, Table 5 part A) was 32 ± 2 nmol/mg prt and the PtdSer (brain phospholipids; gerbil brain, Table 5 part A) was 39 ± 3 nmol/mg prt. The SM (brain phospholipids; gerbil brain, Table 5 part A) was 56 ± 3 nmol/mg prt, the “Total PL” value (brain phospholipids; gerbil brain, Table 5 part A) was 392 ± 20 nmol/mg prt and the “brain phospholipid levels, in words” value (brain phospholipids; gerbil, 3 weeks) was “increased phospholipid levels”. For the same molecule, the “increase in brain level of PC” value (brain phospholipids; [5]) was 22%, the “increase in brain level of PE” value (brain phospholipids; [5]) was 20% and the “increase in brain level of PI” value (brain phospholipids; [5]) was 52%. For the same molecule, the “increase in brain level of sphingomyelin” value (brain phospholipids; [5]) was 24%.
